According to BindingDB's records for doi:10.1021/jm701358v (2008):

Biological target: Bcl-xL (Homo sapiens)
Experiment: Binding affinity to human Bcl-xL protein by fluorescence polarization assay

Ki: 1110 nM
SMILES: O=C(c1ccc(Oc2ccccc2)cc1)c1cc(C(=O)c2nc3ccccc3s2)c(O)c(O)c1O
